Tests used:
[1] = system: spontaneously hypertensive rat (SHR); experiment: Anti-hypertensive activity, unanesthetized spontaneously hypertensive rat (SHR) assay, mean arterial blood pressure; type: in vivo
Description: Male, unanesthetized spontaneously hypertensive rats, 11 to 16 weeks old were used in this test procedure. The compounds to be tested are administered intragastrically at a dose of 50 mg/kg or intraarterially/intraveneously at a dose of 10 mg/kg. or such other doses determined to be suitable for a specific test compound.
Initial mean arterial blood pressure was measured directly via a previously implanted arterial catheter immediately before administration of the test compound. Blood pressure readings were made at 1, 2, 3, and 4 hours following administration of the test compound. […] Statistical comparisons were made using the paired Student's T test with two sided probability calculations.

[2] = system: vascular smooth muscle (isolated thoracic aorta segments); experiment: Calcium antagonism in vascular smooth muscle, isolated thoracic aorta segments from male spontaneously hypertensive rat (pA2); type: cell-based; conditions: for pA2 (Ca++ antagonism): test compound 1×10^-6 M, one hour incubation, K+ (100 mM) depolarized, considered active if pA2 is 6.0 or greater; for active in the foregoing test (vascular calcium antagonism): reference drugs
Description: Isolated thoracic aorta segments from the male spontaneously hypertensive rat were utilized in this test procedure.
The excised aorta segment was mounted in a tissue bath containing modified Krebs solution. After depolarization of the tissue with potassium (100 mM), calcium, in cumulative concentrations of 1×10^-3 M, 3.2×10^-3 M, and 1×10^-2 M was injected into the bath to produce vascular smooth muscle contraction. The developed tension (in grams) is measured and control dose-response values obtained. After one hour of incubation with a test compound at 1×10^-6 M concentration, the same doses of calcium ions were repeated. The log dose-response curves of the control and after treatment were analyzed by linear regression. The pA2 value was calculated as a measure of calcium antagonism of the test compound. See Van Rossum, J. M., Arch. Int. Pharmacodyn, 143, 299-330, 1963.
Calcium ions play an essential role in induction and maintenance of vascular smooth muscle contractility. In potassium depolarized vascular smooth muscle, calcium antagonists may block the entry of calcium ions into the cell or act by other mechanisms to inhibit the contractions induced by calcium ions. The inhibition of calcium ion-induced contraction of vascular smooth muscle is used to test compounds for vascular calcium antagonism. Cardiovascular diseases such as arrythmias, angina-pectoris, hypertension, and peripheral vascular disease may be causally related to abnormalities in cellular handling of calcium ions.

[3] = reference drugs, dose not given

`C[C@](N)(Cc1ccc(O)c(O)c1)C(=O)O` [Aldomet, reference compound] was tested, and the “active in the foregoing hypertensive rat assay” value [1, 3] was “active”.

`NNc1nncc2ccccc12` [Apresoline, reference compound] was tested, and the “active in the foregoing hypertensive rat assay” value ([1]; rat, in vivo) was “active”.

For `C[C@H](CS)C(=O)N1CCC[C@H]1C(=O)O` [Captopril, reference compound], the “active in the foregoing hypertensive rat assay” value [1, 3] was “active”.

`Clc1cccc(Cl)c1N=C1NCCN1` [Clonidine, reference compound] was tested, and the “active in the foregoing hypertensive rat assay” value ([1]; rat, in vivo) was “active”.

In the case of `CN(C)c1ccc(CN2CCC(C(c3ccc(F)cc3)c3ccc(F)cc3)CC2)c(C(=O)NC(C)(C)C)c1` [Example 3, 2-[[4-[bis(4-fluorophenyl)methyl]-1-piperidinyl]methyl]-5-(dimethylamino)-N-(1,1-dimethylethyl)benzamide], the “SHR -mm Hg (dose), blood pressure change” value ([1]; 50 mpk-oral) is reported as -54 mm Hg and the “pA2 (Ca++ antagonism)” value [2] is reported as “inactive”.

In the case of `COC(=O)c1cc(N(C)C)ccc1CN1CCC(C(c2ccc(F)cc2)c2ccc(F)cc2)CC1` [Example 4, methyl 2-[[4-[bis(4-fluorophenyl)methyl]-1-piperidinyl]methyl]-5-(dimethylamino)benzoate], the “SHR -mm Hg (dose), blood pressure change” value ([1]; 50 mpk-oral) is reported as -67 mm Hg and the “pA2 (Ca++ antagonism)” value ([2]; 60 min, 1 µM) is reported as 7.78.

`CNC(=O)c1cc(N(C)C)ccc1CN1CCC(C(c2ccccc2)c2ccccc2)CC1` [Example 5, 5-(dimethylamino)-2-[[4-(diphenylmethyl)-1-piperidinyl]methyl]-N-methylbenzamide] was tested, and the “SHR -mm Hg (dose), blood pressure change” value ([1]; 10 mpk-i.v.) was -56 mm Hg and the “pA2 (Ca++ antagonism)” value ([2]; 60 min, 1 µM) was 7.25.

With `CN(C)c1ccc(CN2CCC(C(c3ccccc3)c3ccccc3)CC2)c(C(=O)NC(C)(C)C)c1` [Example 6, 5-(dimethylamino)-N-(1,1-dimethylethyl)-2-[[4-(diphenylmethyl)-1-piperidinyl]methyl]benzamide] the “SHR activity (in words)” value ([1]; dose not given, active if mean post treatment blood pressure differs from control, p <= 0.05) was “inactive” and the “pA2 (Ca++ antagonism)” value ([2]; 60 min, 1 µM) was 7.20.

In the case of `COC(=O)c1cc(OC)ccc1CN1CCC(C(c2ccccc2)c2ccccc2)CC1` [Example 8, methyl 2-[[4-(diphenylmethyl)-1-piperidinyl]methyl]-5-methoxybenzoate], the “SHR -mm Hg (dose), blood pressure change” value ([1]; 3-10 mpk-i.v.) is reported as -40 mm Hg.

For `CN(C)c1ccc(C[N+]2([O-])CCC(C(c3ccccc3)c3ccccc3)CC2)cc1` (centres unmarked) [Example 9], the “SHR -mm Hg (dose), blood pressure change” value ([1]; 50 mpk-oral) was -48 mm Hg and the “pA2 (Ca++ antagonism)” value [2] was “inactive”.

For `COC(=O)c1cc(N(C)C)ccc1CN1CCC(C(c2ccccc2)c2ccccc2)CC1` [Example 11, methyl 5-(dimethylamino)-2-[[4-(diphenylmethyl)-1-piperidinyl]methyl]benzoate], the “SHR -mm Hg (dose), blood pressure change” value ([1]; 50 mpk-oral) was -34 mm Hg and the “pA2 (Ca++ antagonism)” value ([2]; 60 min, 1 µM) was 7.65.

`COc1ccc(CCN(C)CCCC(C#N)(c2ccc(OC)c(OC)c2)C(C)C)cc1OC` (centres unmarked) [Verapamil, reference compound] was tested, and the “active in the foregoing test (vascular calcium antagonism)” value (“active … (vascular calcium antagonism)” for short) [2] was “active”.

In the case of `COc1ccc([C@@H]2Sc3ccccc3N(CCN(C)C)C(=O)[C@@H]2OC(C)=O)cc1` [diltiazem, reference compound], the “active … (vascular calcium antagonism)” value [2] is reported as “active”.

For `COC(=O)C1=C(C)NC(C)=C(C(=O)OC)C1c1ccccc1[N+](=O)[O-]` [nifedipine, reference compound], the “active … (vascular calcium antagonism)” value [2] was “active”.
